This note sets out measurements from patent US11517598B2 (priority 2016, dated 2022).

The subject of assay [1] is VSVΔ51 in various human and mouse cancer cell lines resistant to VSVΔ51 infection. Format: cell-based.
Assay [2] has as its system VSVΔ51 in various human and mouse cancer cell lines. Format: cell-based.

With Sodium orthovanadate, in assay [1], the “VSVΔ51 infection and viral titer” value is “Comparable results”. Besides, in assay [2], the plaque size entry is recorded as “substantially increased plaque size”.
